Data from patent US20100292137A1, “Antibiotics and Methods For Producing Them” (priority 2006, published 2010).
Where two headings read alike, the source gives them in different places.

Tests used:
M. tuberculosis [1] = settings: tlyA mutants 315-A, C-202 and C-211; cited from earlier work
M. tuberculosis [2] = type: cell-based, Mycobacterium tuberculosis
[3] = test system: M. tuberculosis rrl mutant C-401; type: cell-based, Mycobacterium tuberculosis

Row | Compound | susceptibility (M. tuberculosis [1]) | susceptibility (M. tuberculosis [2]) | effect on growth rate [3]
1 | NCC[C@H](O)C(=O)N[C@@H]1C[C@H](N)[C@@H](O[C@H]2O[C@H](CN)[C@@H](O)[C@H](O)[C@H]2O)[C@H](O)[C@H]1O[C@H]1O[C@H](CO)[C@@H](O)[C@H](N)[C@H]1O [amikacin] | susceptible | susceptible | 
2 | capreomycin |  |  | do not noticeably slow the growth rate
